Data as given in article PMC7363588, “Mapping of the FGF14:Nav1.6 complex interface reveals FLPK as a functionally active peptide modulating excitability” (Physiological Reports, 2020).
Entries after “also recorded” stand apart in the source; their conditions may differ. Marks after values point to notes of the source that are not given here. Peptide text beside a SMILES is read from it.

Tested on: Nav1.6 in the presence of FGF14-ΔNT-GFP
Experiment: Whole-cell patch-clamp, HEK-Nav1.6 cells expressing FGF14-ΔNT-GFP
Assay type: cell-based, human
Settings: 50 μM FLPK
From the text: Plasmids used in this study derived from the following clones: human FGF14‐1b isoform (accession number: NM_175929.2) and human Nav1.6 (accession number: NM_014191.3). The CLuc‐FGF14, CD4‐Nav1.6‐NLuc, constructs and the pcDNA3.1 vector (Invitrogen, Carlsbad, CA) were engineered and characterized as previously described (Goetz et al., 2009; Shavkunov et al., 2012,2013,2015; Ali et al., 2016, 2018; Wadsworth et al., 2019). The plasmid pGL3 expressing full length Firefly (Photinus pyralis) luciferase was a gift from Dr. P. Sarkar (Department of Neurology, UTMB). For protein purification studies, cDNAs encoding FGF14‐1b (accession number NP_787125; aa 64–252) or the C‐terminal tail of Nav1.6 (accession number #NP_001171455; aa 1756–1939) were subcloned into suitable pET bacterial expression vectors (pET28a‐FGF14; pET30a‐Nav1.6) with a 6X His‐tag at the N‐terminal site; these plasmids were a gift of Dr. Moosa Mohammadi (NYU, Langone Medical Center). The mutation coding for FGF14^V160A was generated by site‐directed mutagenesis and PCR using FGF14‐1b as a template described previously (Ali et al., 2016). For electrophysiological studies FGF14‐GFP (human) and FGF14‐ΔNT‐GFP (human) were cloned into the GFP plasmid (pQBI‐fC2; Quantum Biotechnology Inc., Montreal, Canada) as previously described.
HEK293 cells were maintained in DMEM and F‐12 (Invitrogen, Carlsbad, CA), supplemented with 0.05% glucose, 0.5 mM pyruvate, 10% fetal bovine serum, 100 units/ml penicillin, and 100 µg/ml streptomycin (Invitrogen), and incubated at 37 °C with 5% CO2. HEK293 cells stably expressing the human Nav1.6 channel (hereafter referred to as HEK‐Nav1.6 cells) were maintained similarly except for the addition of 500 μg/ml G418 (Invitrogen) to maintain stable Nav1.6 expression. Cells were transfected at 80%–90% confluence with equal amount (1 μg each) of plasmid pairs using Lipofectamine 2000 (Invitrogen) according to manufacturer's instructions. HEK‐Nav1.6 cells were washed and replated at very low density prior to electrophysiological recordings (Ali et al., 2016, 2018; Scala et al., 2018; Wadsworth et al., 2019).
HEK‐Nav1.6 cells transfected with GFP or FGF14‐GFP were plated at low density on glass cover slips for 3–4 hr and subsequently transferred to the recording chamber. Recordings were performed at room temperature (20–22°C) 24 hr posttransfection using a MultiClamp 700B amplifier (Molecular Devices, Sunnyvale, CA). The composition of recording solutions consisted of the following salts; extracellular (mM): 140 NaCl, 3 KCl, 1 MgCl2, 1 CaCl2, 10 HEPES, 10 glucose, pH 7.3; intracellular (mM): 130 CH3O3SCs, 1 EGTA, 10 NaCl, 10 HEPES, pH 7.3. Membrane capacitance and series resistance were estimated by the dial settings on the amplifier and compensated for electronically by 70%–75%. Data were acquired at 20 kHz and filtered at 5 kHz prior to digitization and storage. All experimental parameters were controlled by Clampex 9.2 software (Molecular Devices) and interfaced to the electrophysiological equipment using a Digidata 1,200 analog‐digital interface (Molecular Devices). Voltage‐dependent inward currents for HEK‐Nav1.6 cells were evoked by depolarization to test potentials between −100 mV and +60 mV from a holding potential of −70 mV followed by a voltage prestep pulse of −120 mV (Nav1.6). Steady‐state (fast) inactivation of Nav channels was measured with a paired‐pulse protocol. From the holding potential, cells were stepped to varying test potentials between −120 mV (Nav1.6) and +20 mV (prepulse) prior to a test pulse to −20 mV.
Current densities were obtained by dividing Na^+ current (INa) amplitude by membrane capacitance. Current–voltage relationships were generated by plotting current density as a function of the […]. Conductance (GNa) was calculated by the following equation: GNa=INa/Vm‐Erev where INa ^+ is the current amplitude at voltage Vm, and Erev is the Na^+ reversal potential. […]

## CC(=O)N[C@@H](Cc1ccccc1)C(=O)N[C@@H](CC(C)C)C(=O)N1CCC[C@H]1C(=O)N[C@@H](CCCCN)C(N)=O [FLPK] (Ac-FLPK-NH2)
FGF14-ΔNT-GFP
  effect on Nav1.6 currents in absence of FGF14 N-terminal domain: insensitive to FLPK; also recorded: no effects on any other parameters associated with FGF14‐GFP regulation; also recorded: unaffected by FLPK
ΔNT-FGF14-GFP, at −10 mV, mean ± SEM (n = 11), DMSO 1.091 ± 0.07
  Tau (τ), decay time constant of I Na: 1.137 ± 0.08 (11) ms
ΔNT-FGF14-GFP, mean ± SEM (n = 11), DMSO 4.61 ± 0.3
  Kact: 1.63 ± 0.23 (11) mV
ΔNT-FGF14-GFP, mean ± SEM (n = 11), DMSO 6.4 ± 0.44
  Kinact: 6.75 ± 0.32 (11) mV
ΔNT-FGF14-GFP, mean ± SEM (n = 11), DMSO –21.2 ± 0.36, p < .001
  Activation (V1/2): –37.43 ± 0.3 (11) ^ l , ^ o,p,q mV
ΔNT-FGF14-GFP, mean ± SEM (n = 11), DMSO –70.2 ± 0.53
  Steady-state Inactivation (V1/2): –68.3 ± 0.34 (11) ^o,p,q mV
